# Patent publication US10471076B2, “Compositions and methods to treat vision disorders” (YouHealth Biotech, Limited, priority 2014, dated 2019)
# Where “and” joins values, the source holds several entries; their conditions need not be identical. Identical values can stand only once. Entries after “also recorded” stand apart in the source; their conditions may differ.
# Columns and labels:
# [1] = test system: cataract-causing mutant crystallin proteins; experiment: Intracellular aggregation of mutant crystallins in transfected human lens progenitor cells; assay type: cell-based
# Description: To assess the effect of lanosterol on crystallin aggregation, human lens progenitor cells were co-transfected with LSS and various crystallin constructs for 4 h. Cells co-transfected with crystallin mutants and pcDNA3.1-N-Flag were used as a control. Human lens progenitor cells co-transfected with LSS and crystallin mutant constructs were cultured for 12 h before assaying for aggregates. The rescue experiments were performed after 16 h by addition of 40 mM sterols (lanosterol or cholesterol, Sigma-Aldrich) to the cell culture medium for 2 h, which was then replaced with fresh culture medium and cells cultured for 24 h. The percentage of cells with crystallin aggregates was calculated from ten randomly selected viewing fields. The values of the wild-type LSS group, mutant group, and mutant plus lanosterol group were calculated. Cells treated with 1% DMSO were used as the controls.
# The impact of LSS and lanosterol on intracellular crystallin aggregation were evaluated in single-blinded observer studies. Experiments have been repeated at least three times. P values were calculated using Student's t-tests. Fluorescence microscopy. Equal amounts of the human lens progenitor cells, HLEB-3 cells or HeLa cells were seeded on glass coverslips pretreated with TC (Solarbio). After culturing for 24 h to reach 90% confluency, the cells were transfected with plasmids containing various LSS or crystallin genes or co-transfected with plasmids containing a certain crystallin gene and those containing the wild-type or mutated LSS gene. The controls were cells transfected with the plasmids containing peGFP-N1 and/or peDNA3.1-N-Flag. Both transfection and co-transfection were performed using Lipofectamine 3000 (Invitrogen) according to the instructions from the manufacturer.
# The effect of lanosterol or cholesterol on the aggresome formation of various crystallins was studied by transfecting the cells with plasmids containing various crystallin genes. The cells were incubated for 24 h to enable efficient protein expression and aggresome formation. The cells were then treated with 0-40 mM sterols in 1% (for human lens progenitor cells) or 2% DMSO (for HeLa cells). Cells treated with 1% or 2% DMSO were used as the control. After treatment for 2 h, the media was replaced with fresh media. After 12 h, the cells were used for microscopy analysis.
# The microscopy samples were prepared by washing the slips with phosphate buffered saline (PBS) three times. The cells were fixed with 4% paraformaldehyde for 40 min followed by another three washes with PBS. The cells were permeabilized with 0.1% Triton X-100 (Sigma) in PBS for 10 min and blocked with 5% normal goat serum in PBS for 1 h at 37° C. […] The mounted cells were analysed using a Carl Zeiss LSM 710 confocal microscope.
# [2] = test system: naturally occurring cataractous lenses from rabbits; experiment: Treatment of isolated cataractous rabbit lenses; set-up: key to cataract grade before treatment / cataract grade after treatment: Grade 0: absence of opacification (gridlines clearly visible); Grade 1: a slight degree of opacification (minimal clouding of gridlines, with gridlines still visible); Grade 2: presence of diffuse opacification involving almost the entire lens (moderate clouding of gridlines, with main gridlines visible); Grade 3: presence of extensive, thick opacification involving the entire lens (total clouding of gridlines, with gridlines not seen at all)
# Excerpt: FIG. 12A, FIG. 12B, and FIG. 12C show grading system of cataractous lenses. […] The degree of transparency was scored as 0, a clear lens and absence of opacification (gridlines clearly visible, a′); 1, a blurry lens and a slight degree of opacification (minimal clouding of gridlines, with gridlines still visible, b′); 2, a cloudy lens and presence of diffuse opacification involving almost the entire lens (moderate clouding of gridlines, with main gridlines visible, c′); or 3, an opaque lens and presence of extensive thick opacification involving the entire lens (total clouding of gridlines, with gridlines not seen at all, d′). […] Rabbit lenses (n=13) were dissected and incubated with lanosterol for 6 days and subsequently assessed for lens clarity and transparency. Pairs of photographs of each cataractous rabbit lens showing before and after treatment with scores underneath are shown. […] Dog eyes with cataracts (n=7) were treated with lanosterol for 6 weeks and assessed for lens clarity and transparency. A pair of photographs of each study eye before and after treatment is shown with scores underneath. Three control eyes treated with vehicles alone are also presented.
# Treatment of cataractous rabbit lenses. Rabbits were euthanized by CO2 inhalation and lenses were immediately dissected and treated with vehicle or lanosterol dissolved in vehicle to make 25 mM solutions. Lens tissues were incubated in these solutions for 6 days in the dark at room temperature. Cataracts were examined under a microscope and photographed. Degree of cataract was assessed by a blinded examiner using a previously described opacification grading system, shown below^32,33. Improvements in lens clarity and transparency were quantified by visual inspection and grading. Lens clarity was scored by transmission of light, clarity of a grid image underneath the lens (FIG. 12A, FIG. 12B, FIG. 12C), and improvement in overall clarity of a lens or improvement in clarity of localized areas of cortical cataract. Wilcoxon test was used to evaluate the treatment effect.
# Cataract grading system. […]
compound,measurement,setting,value
"CC(C)=CCC[C@@H](C)[C@H]1CC[C@@]2(C)C3=C(CC[C@]12C)[C@@]1(C)CC[C@H](O)C(C)(C)[C@@H]1CC3 [lanosterol, 3β-Hydroxy-8,24-lanostadiene; 8,24-Lanostadien-3β-ol]",intracellular aggregation / aggresome formation of crystallin proteins,"[1]; 0-40 mM sterols in 1% DMSO for 2 h, then 12 h, concentration-dependent, n=3, lanosterol P<1×10^−4, cholesterol P>0.1",significantly inhibited aggresome formation; also recorded: significantly reduced the intracellular aggregation
same,crystallin aggregation in cells co-expressing an LSS mutant and a mutant crystallin (rescue by sterol),"[1]; 40 mM sterols in culture medium for 2 h, then fresh medium 24 h",successfully reduced crystallin aggregation
same,cataract grade after treatment,"[2]; isolated rabbit lens incubated in 25 mM lanosterol solution for 6 days, n=13",1 and 0
same,cataract grade before treatment,"[2]; isolated rabbit lens, baseline of each lanosterol-treated sample, n=13",2 and 1 and 3
same,cataract severity / lens clarity,"[2]; isolated rabbit lenses, 25 mM lanosterol, 6 days, P<0.003, Wilcoxon Test",strong trend of reduction in cataract severity; also recorded: reduced cataract severity and increased clarity
